Results reported in PMC8421406, “C9orf72-derived arginine-rich poly-dipeptides impede phase modifiers” (Nature Communications, 2021).
Where no end group is shown, it is not given here. MBP = maltose-binding protein; HA = HA epitope tag

Assays:
Kapβ2 [1] = assay: Pull-down (on-column) binding assay, Kapβ2; conditions: purified recombinant proteins, 20 mM HEPES pH 7.4, 150 mM NaCl, equal molar, 20–30 min
Text: (§1) Unbound proteins were washed three times with the buffer.

[2] = tested on: MBP:FUS (full-length FUS droplets) / Kapβ2; assay: Turbidity assay of FUS droplet formation (OD 395 nm); format: biochemical; conditions: equimolar poly-dipeptide and Kapβ2 (8 μM)
Importinα = assay: Pull-down binding assay, GST:Importinα; conditions: GST:Importinα on beads
Text: as §1

Importinβ1 = assay: Pull-down binding assay, GST:Importinβ1; conditions: GST:Importinβ1 on beads
Text: as §1

Kapβ2 [3] = assay: Isothermal titration calorimetry; format: binding; conditions: ITC, Supplementary Table 1 (not shown)
Description: ITC experiments were performed with a Malvern iTC200 calorimeter (Malvern Instruments). […] ITC experiments were performed at 25 °C with 19 rounds of 2 μL injections. Data were analyzed using Origin software.

Kapβ2 [4] = assay: Analytical ultracentrifugation; format: binding; conditions: 28 µM each, 25 °C, 20 mM HEPES pH 7.4, 150 mM NaCl
Description: AUC measurements were conducted with ProteomeLab XL-I (Beckman Coulter). […] The solutions were filled in 1.5 mm path-length titanium cells (Nanolytics). The measurements were performed with Rayleigh-interference optics at rotor speed of 125,000 × g (at 70 mm radius). The temperature was set at 25 °C. The weight concentration distribution as a function of sedimentation coefficient c(s20,w) and frictional ratio f/f0 were computed with SEDFIT[49] and Igor Pro software. The sedimentation coefficient was normalized to be the value at 20 °C in pure water s20,w. The molecular weight M was calculated with the corresponding peak value of s20,w and f/f0[49].

endogenous Kapβ2 = assay: Immunoprecipitation from HeLa cells; format: binding; conditions: expressed in HeLa cells; cytosol extract, Streptavidin Mag Sepharose
Description: The pcDNA5/FRT/TO-HA:SBP plasmid was generated by inserting the PCR-amplified HA:SBP sequence into the pcDNA5/FRT/TO vector (Thermo Fisher Scientific) between the HindIII and BamHI sites. The HA:SBP:GFP:PR20:HA plasmid was constructed by ligating the GFP:PR20:HA sequence into the pcDNA5/FRT/TO-HA-SBP between the EcoRV and XhoI sites. The HA:SBP:Kapβ2 plasmid was constructed by ligating the Kapβ2 sequence into the pcDNA5/FRT/TO-HA:SBP between the BamHI and NotI sites. HeLa cells were cultured in Dulbecco’s modified Eagle medium/10% fetal bovine serum at 37 °C with 5% CO2. Cells were transfected with plasmids using Lipofectamine 3000 (Thermo Fisher Scientific) according to the manufacturer’s instructions. HeLa cytosol extracts were prepared by Cytoplasmic Extraction buffer (CE; 10 mM HEPES pH 7.9, 60 mM KCl, 1 mM EDTA, 0.075% NP40, 1 mM DTT, and cOmplete™ EDTA-free protease inhibitor [Sigma-Aldrich]) for 10 min on ice and then separated from nuclear by centrifugation at 500 × g for 10 min. The resultant extracts were cleared by centrifugation at 20,400 × g for 10 min. The supernatant containing the HeLa cytosol extracts were mixed with the Streptavidin Mag Sepharose (GE Healthcare) and rotated at 4 °C overnight. The beads were finally washed five times with CE buffer. The anti-Kapβ2 (sc-166127, 1 : 1000) antibody was obtained from Santa Cruz Biotechnology. […]

BSA = assay: Pull-down binding assay, BSA control; conditions: GST:PR18 on beads
Text: as §1

EGFP = conditions: GST:PR18 on beads
Description: (§2) Four micrograms of GST proteins were immobilized on 30 μL of beads. […] Unbound proteins were washed three times with the buffer. Bound proteins and unbound proteins were separated by SDS-polyacrylamide gel electrophoresis and stained with Coomassie Brilliant Blue.

MBP = conditions: GST:PR18 on beads
Description: as §2

Lysozyme = assay: Pull-down binding assay, Lysozyme control; conditions: GST:PR18 on beads
Text: as §1

## MBP:PR8: maltose-binding protein fusion of 8 repeats of Pro-Arg ({MBP}-PRPRPRPRPRPRPRPR)
Kapβ2 [1]
  Binding to Kapβ2 (pull-down): did not

## GA20
[2]
  Inhibition of the ability of Kapβ2 to melt FUS droplets (turbidity): did not

## MBP:PR18: maltose-binding protein fusion of 18 repeats of Pro-Arg (PRPRPRPRPRPRPRPRPRPRPRPRPRPRPRPRPRPR; also: MBP fusion, end not given here)
Kapβ2 [1]
  Binding to Kapβ2 (pull-down): bound Kapβ2
Importinα
  Binding to Importinα (pull-down): interactions
Importinβ1
  Binding to Importinβ1 (pull-down): interactions
Kapβ2 [3]
  Relative binding strength to Kapβ2 vs full-length FUS: bound Kapβ2 more strongly than full-length FUS does
Kapβ2 [4]
  Complex formation with Kapβ2 (AUC): complex formation

## HA:SBP:GFP:PR20:HA: PR20 fusion expressed from plasmid in HeLa cells ({HA-SBP-GFP}-PRPRPRPRPRPRPRPRPRPRPRPRPRPRPRPRPRPRPRPR-{HA}; not fully specified)
Endogenous Kapβ2
  Co-immunoprecipitation of endogenous Kapβ2: interaction between endogenous Kapβ2 and HA:SBP:GFP:PR20:HA

## GST:PR18: Glutathione S-transferase fusion of PR18 (PRPRPRPRPRPRPRPRPRPRPRPRPRPRPRPRPRPR; also: GST fusion, end not given here)
Kapβ2 [1]
  Binding to Kapβ2 (pull-down): bound Kapβ2
BSA
  Binding to BSA (pull-down): no interaction
EGFP
  Binding to EGFP (pull-down): no interaction
MBP
  Binding to MBP (pull-down): no interaction
Lysozyme
  Binding to Lysozyme (pull-down): no interaction
